Our source for the Activity and inhibition values is ChEMBL document CHEMBL5247615, “Discovery of 5-(3,4-dihydroxybenzylidene)-1,3-dimethylpyrimidine- 2,4,6(1H,3H,5H)-trione as a novel and effective cardioprotective agent via dual anti-inflammatory and anti-oxidative activities” (Eur J Med Chem, 2022).

Data set [1] relates to H9c2. Kind of data set: Cardioprotective activity against hydrogen peroxide induced cell injury in rat H9c2 cells assessed as reduction in loss of cell membrane integrity by measuring LDH level at 10 uM pretreated with compound for 24 hrs followed by treatment with hydrogen peroxide for 2 hrs relative to control. The format is functional. On the set-up: scale not given: the % may be the effect or the level left.

The test system of data set [2] is Rattus norvegicus. The data set is described as follows: Antiinflammatory activity in myocardial ischemia/reperfusion induced ip dosed Sprague-Dawley rat injury model assessed as decrease in IL-1beta protein expression in heart administered once a day for 2 weeks by Western blotting analysis. In kind it is functional, organism-based. The note with it: dose 5-20 mg/kg. On the technique in general: Immunoblotting shows a protein as a band on a membrane.

Data set [3] relates to H9c2. The data set is described as follows: Cardioprotective activity against hydrogen peroxide induced cell injury in rat H9c2 cells assessed as reduction in loss of cell membrane integrity by measuring LDH level at 20 uM pretreated with compound for 24 hrs followed by treatment with hydrogen peroxide for 2 hrs relative to control. In kind it is functional. More on the design: scale not given: the % may be the effect or the level left.

The test system of data set [4] is H9c2. The data set is described as follows: Cytotoxicity against rat H9c2 cells assessed as reduction in cell viability upto 100 uM measured after 24 hrs by MTT assay relative to control. The format is toxicity, cell-based. As to conditions: h9c2, 24 h. A general note: Formazan colour is commonly taken as a measure of viable cells.
The test system of data set [5] is H9c2. Kind of data set: Inhibition of autophagy in hydrogen peroxide induced rat H9c2 cells assessed as down regulation of […] mRNA level at 5 to 20 uM pretreated with compound for 24 hrs followed by treatment with hydrogen peroxide for 2 hrs. In kind it is functional, cell-based. The note with it: dose 5-20 µM, time 26.0 hrs.
Data set [6] concerns Rattus norvegicus. Kind of data set: Antiinflammatory activity in myocardial ischemia/reperfusion induced Sprague-Dawley rat injury model assessed as decrease in IL-1beta protein expression in heart at 10 mg/kg, ip administered once a day for 2 weeks by Western blotting analysis. In kind it is functional, organism-based.
For data set [7], the system named is H9c2. Kind of data set: Antiinflammatory activity in hydrogen peroxide induced rat H9c2 cells assessed as reversal of increase in IL-1beta mRNA expression pretreated with compound for 24 hrs followed by treatment with hydrogen peroxide for 2 hrs. The format is functional, cell-based. The note with it: dose 5-20 µM, time 26.0 hrs.
Data set [8] concerns H9c2. Kind of data set: Cardioprotective activity against hydrogen peroxide induced cell injury in rat H9c2 cells assessed as reduction in loss of cell membrane integrity by measuring LDH level at 5 uM pretreated with compound for 24 hrs followed by treatment with hydrogen peroxide for 2 hrs relative to control. In kind it is functional. On the set-up: scale not given: the % may be the effect or the level left.

The subject of data set [9] is Rattus norvegicus. The data set is described as follows: Antiinflammatory activity in myocardial ischemia/reperfusion induced ip dosed Sprague-Dawley rat injury model assessed as increase in CAT activity administered once a day for 2 weeks by Western blotting analysis. The format is functional, organism-based. The note with it: dose 5-20 mg/kg.
Data set [10] concerns Rattus norvegicus. Kind of data set: Cardioprotective activity in myocardial ischemia/reperfusion induced Sprague-Dawley rat injury model assessed as reduction in heart cardiac infarct size at 20 mg/kg, ip administered once a day for 2 weeks measured by Evans blue staining analysis (reference value: 46.8%). In kind it is functional. On the set-up: scale not given: the % may be the effect or the level left.

Data set [11] relates to Rattus norvegicus. The data set is described as follows: Antiinflammatory activity in myocardial ischemia/reperfusion induced ip dosed Sprague-Dawley rat injury model assessed as decrease in NLRP3 protein expression in heart administered once a day for 2 weeks by Western blotting analysis. The format is functional, organism-based. The note with it: dose 5-20 mg/kg.
Data set [12] relates to H9c2. The data set is described as follows: Inhibition of autophagy in hydrogen peroxide induced rat H9c2 cells assessed as down regulation of p62 mRNA level at 5 to 20 uM pretreated with compound for 24 hrs followed by treatment with hydrogen peroxide for 2 hrs. As to conditions: dose 5-20 µM, time 26.0 hrs. In kind it is functional, cell-based.
In data set [13] the test system is H9c2. The data set is described as follows: Antiinflammatory activity in hydrogen peroxide induced rat H9c2 cells assessed as reversal of increase in IL-18 mRNA expression pretreated with compound for 24 hrs followed by treatment with hydrogen peroxide for 2 hrs. The format is functional, cell-based. As to conditions: dose 5-20 µM, time 26.0 hrs.
Data set [14] concerns H9c2. The data set is described as follows: Cardioprotective activity against hydrogen peroxide induced cell injury in rat H9c2 cells assessed as reversal of abnormal cell morphology pretreated with compound for 24 hrs followed by treatment with hydrogen peroxide for 2 hrs. As to conditions: dose 5-20 µM, time 26.0 hrs. The format is functional, cell-based.
The subject of data set [15] is H9c2. The data set is described as follows: Cardioprotective activity against hydrogen peroxide induced cell injury in rat H9c2 cells at 5 to 20 uM pretreated with compound for 24 hrs followed by hydrogen peroxide addition for 2 hrs by MTT assay. In kind it is functional, cell-based. As to conditions: dose 5-20 µM, time 26.0 hrs.
Data set [16] relates to Rattus norvegicus. Kind of data set: Cardioprotective activity in myocardial ischemia/reperfusion induced Sprague-Dawley rat injury model assessed as reduction in cardiac infarct size at 10 mg/kg, ip administered once a day for 2 weeks measured by Evans blue staining analysis (reference value: 46.8%). The format is functional, Heart. On the set-up: scale not given: the % may be the effect or the level left.

Data set [17] deals with H9c2. The data set is described as follows: Cardioprotective activity against hydrogen peroxide induced cell injury in rat H9c2 cells assessed as increase in cell viability at 5 uM measured after 24 hrs by MTT assay. In kind it is functional.
The subject of data set [18] is Rattus norvegicus. The data set is described as follows: Cardioprotective activity in myocardial ischemia/reperfusion induced Sprague-Dawley rat injury model assessed as decrease in ST-segment elevation at 5 to 20 mg/kg, ip administered once a day for 2 weeks measured by electrocardiogram. The format is functional, organism-based. The note with it: dose 5-20 mg/kg.

Data set [19] relates to Rattus norvegicus. The data set is described as follows: Cardioprotective activity in myocardial ischemia/reperfusion induced ip dosed Sprague-Dawley rat injury model assessed as increase in heart LDH level administered once a day for 2 weeks. In kind it is functional, organism-based. As to conditions: dose 5-20 mg/kg.
In data set [20] the test system is Rattus norvegicus. The data set is described as follows: Antiinflammatory activity in myocardial ischemia/reperfusion induced ip dosed Sprague-Dawley rat injury model assessed as decrease in MDA level administered once a day for 2 weeks by Western blotting analysis. The note with it: dose 5-20 mg/kg. In kind it is functional, organism-based.
Data set [21] deals with H9c2. The data set is described as follows: Antioxidant activity in hydrogen peroxide induced rat H9c2 cells assessed as increase in Nrf2 expression pretreated with compound for 24 hrs followed by treatment with hydrogen peroxide for 2 hrs. In kind it is functional, cell-based. As to conditions: dose 5-20 µM, time 26.0 hrs.
In data set [22] the test system is H9c2. The data set is described as follows: Antioxidant activity in hydrogen peroxide induced rat H9c2 cells assessed as increase in HO-1 expression pretreated with compound for 24 hrs followed by treatment with hydrogen peroxide for 2 hrs. As to conditions: dose 5-20 µM, time 26.0 hrs. In kind it is functional, cell-based.
The subject of data set [23] is Rattus norvegicus. The data set is described as follows: Cardioprotective activity in myocardial ischemia/reperfusion induced ip dosed Sprague-Dawley rat injury model assessed as increase in heart AST level administered once a day for 2 weeks. The note with it: dose 5-20 mg/kg. In kind it is functional, organism-based.
Data set [24] concerns H9c2. Kind of data set: Antiinflammatory activity in hydrogen peroxide induced rat H9c2 cells assessed as reversal of increase in NLRP-3 mRNA expression pretreated with compound for 24 hrs followed by treatment with hydrogen peroxide for 2 hrs. In kind it is functional, cell-based. The note with it: dose 5-20 µM, time 26.0 hrs.
In data set [25] the test system is Rattus norvegicus. The data set is described as follows: Antioxidant activity in myocardial ischemia/reperfusion induced Sprague-Dawley rat injury model assessed as […] Nrf2 expression administered at 10 mg/kg, ip once a day for 2 weeks by Western blotting analysis. In kind it is functional, organism-based.
The subject of data set [26] is H9c2. Kind of data set: Antioxidant activity in hydrogen peroxide induced rat H9c2 cells assessed as increase in SOD expression pretreated with compound for 24 hrs followed by treatment with hydrogen peroxide for 2 hrs. As to conditions: dose 5-20 µM, time 26.0 hrs. In kind it is functional, cell-based.
For data set [27], the system named is H9c2. The data set is described as follows: Cardioprotective activity against hydrogen peroxide induced cell injury in rat H9c2 cells assessed as increase in cell viability at 5 to 20 uM measured after 24 hrs by MTT assay. As to conditions: dose 5-20 µM. In kind it is functional, cell-based.
Data set [28] relates to H9c2. Kind of data set: Cardioprotective activity against hydrogen peroxide induced cell injury in rat H9c2 cells at 40 uM pretreated for 24 hrs followed by treatment with hydrogen peroxide for 2 hrs by MTT assay. In kind it is functional, cell-based. The note with it: time 26.0 hrs.

Each structure is given as a SMILES string. Active and inactive are the calls of the source. No cut-off for these calls is given here.

Turning to `CN1C(=O)C(=Cc2ccc(O)c(O)c2)C(=O)N(C)C1=O`, the Activity with H9c2 [1] is 35.6%; in the data set on H9c2 [3] it was 60.7%; in the data set with H9c2 [4], “Non-Toxic”; with H9c2 [7], “Dose-Dependent Effect”; in the data set on H9c2 [8], 15.3%; with Rattus norvegicus [10], 22.3%. For the same compound, the Activity result in the data set on H9c2 [13] was “Dose-Dependent Effect”; in the data set with H9c2 [14] it was “Dose-Dependent Effect”; in the data set on Rattus norvegicus [16], 32.3%; in the data set on H9c2 [17], 77.5%; with Rattus norvegicus [19], “Dose-Dependent Effect”; with H9c2 [21] it was “Dose-Dependent Effect”. Besides, the Activity entry in the data set on H9c2 [22], in the data set on Rattus norvegicus [23], in the data set with H9c2 [24] and with H9c2 [26] was “Dose-Dependent Effect” in each case. The outcome with Rattus norvegicus [2], in the data set with Rattus norvegicus [6], in the data set on Rattus norvegicus [9], in the data set with Rattus norvegicus [11], in the data set on H9c2 [15] and with Rattus norvegicus [18] was Active. For the same compound, the outcome in the data set with Rattus norvegicus [20] and in the data set with H9c2 [27] was Active. Moreover, the inhibition entry in the data set on H9c2 [5] and in the data set on H9c2 [12] was “Active” in each case. In addition, the result in the data set on Rattus norvegicus [25] was inactive.
Take `CN1C(=O)C(=Cc2ccccc2O)C(=O)N(C)C1=O`: the Activity in the data set with H9c2 [17] was determined as 40.3%. In addition, the outcome with H9c2 [27] was Active.
`O=c1cc(-c2ccc(O)c(O)c2)oc2cc(O)cc(O)c12`: the result in the data set on H9c2 [28] was Active.
Still for that read-out and setting: the result for `COCCc1ccc(OCC(O)CNC(C)C)cc1` (stereo not drawn) reads “Active”.
In the case of `Cc1ccc(O)c(C=C2C(=O)N(C)C(=O)N(C)C2=O)c1`, in the data set with H9c2 [15], the outcome was Active.
As for `CN1C(=O)C(=Cc2cccc(O)c2O)C(=O)N(C)C1=O`, in the data set with H9c2 [15], the result was Active.
